Assay [1] deals with T1, PRMT5 (Homo sapiens, UniProt O14744).
T1 construct: purchased Viva (custom protein)
The assay can be described thus: PRMT5 IC50 assay in the presence of MTA as cofactor. It counts as biochemical. Put shortly:
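Three cofactor conditions are run: SAM-bound, MTA-bound and cofactor-free enzyme. IC50 is read from each; for the SAM and MTA arms it is divided by 1.5 and 13.5 respectively to give Ki.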

The next assay relates to HAP1 MTAP-deleted. As to the kind of experiment: SDMA in-cell western assay, HAP1 MTAP-deleted cell line. It counts as cell-based. In short, it runs like this: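 IC50 from SDMA in-cell western; HAP1 line lacking MTAP (null), paired isogenically with MTAP-intact HAP1 expressing endogenous MTAP.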
Assay [2] addresses T1, PRMT5. As to the kind of experiment: PRMT5 IC50 assay in the presence of SAM as cofactor. It counts as biochemical. In short, it runs like this: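 Values reflect IC50 (μM) on human PRMT5 under three cofactor states. Selectivity is derived as the quotient of SAM-state Ki over MTA-state Ki, with each Ki obtained from its IC50.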
Another assay concerns HAP1 MTAP-intact. The assay can be described thus: SDMA in-cell western assay, HAP1 MTAP-intact cell line. It is filed as cell-based. To be noted: Homo sapiens. Put shortly:
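HAP1 isogenic pair: endogenous MTAP vs MTAP-null. Readout SDMA by in-cell western; IC50 per line. Ratio ≥3 fold = MTAP-selective.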

Assay [3] has as its target T1, PRMT5. As to the kind of experiment: PRMT5 IC50 assay with no cofactor. It is filed as biochemical. The following applies: read-out: No Co-factor IC50. Put shortly:
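Each compound is tested on PRMT5 in the presence of SAM, of MTA, and without any cofactor. Ki values are then back-calculated using fixed factors of 1.5 (SAM) and 13.5 (MTA), and the two Ki values are compared as a ratio.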

T1 sequence (O14744 whole entry): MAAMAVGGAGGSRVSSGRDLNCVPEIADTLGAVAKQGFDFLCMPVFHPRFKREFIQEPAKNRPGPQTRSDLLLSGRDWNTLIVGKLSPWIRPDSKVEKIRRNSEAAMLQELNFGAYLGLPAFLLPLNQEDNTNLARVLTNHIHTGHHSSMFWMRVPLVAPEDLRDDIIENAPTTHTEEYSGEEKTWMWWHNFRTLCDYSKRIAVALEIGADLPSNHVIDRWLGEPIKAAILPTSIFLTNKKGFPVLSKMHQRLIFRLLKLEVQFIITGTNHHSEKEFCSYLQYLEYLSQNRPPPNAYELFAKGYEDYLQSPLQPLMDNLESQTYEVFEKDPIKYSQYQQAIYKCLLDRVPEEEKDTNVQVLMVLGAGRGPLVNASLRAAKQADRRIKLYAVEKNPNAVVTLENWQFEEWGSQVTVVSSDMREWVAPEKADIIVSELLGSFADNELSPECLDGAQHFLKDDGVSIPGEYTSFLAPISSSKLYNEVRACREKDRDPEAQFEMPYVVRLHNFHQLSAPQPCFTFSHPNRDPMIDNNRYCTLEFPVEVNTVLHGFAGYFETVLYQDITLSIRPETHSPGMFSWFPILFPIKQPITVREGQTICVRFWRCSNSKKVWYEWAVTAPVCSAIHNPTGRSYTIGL
T1 sequence (Q9BQA1 whole entry partner): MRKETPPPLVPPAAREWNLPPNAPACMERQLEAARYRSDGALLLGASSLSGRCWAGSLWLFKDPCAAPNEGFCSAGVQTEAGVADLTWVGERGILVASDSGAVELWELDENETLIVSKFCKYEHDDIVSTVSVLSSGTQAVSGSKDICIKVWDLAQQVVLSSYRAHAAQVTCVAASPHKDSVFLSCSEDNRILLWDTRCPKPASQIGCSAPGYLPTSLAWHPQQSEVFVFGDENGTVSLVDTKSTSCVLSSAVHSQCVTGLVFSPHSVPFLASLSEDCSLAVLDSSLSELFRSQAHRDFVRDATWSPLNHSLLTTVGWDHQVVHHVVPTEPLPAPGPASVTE

The term IC50 denotes the concentration at which inhibition is half-maximal. For the compound `CCN(C)c1nc(NC2COC2)cc(C(=O)NC[C@H](O)CN2CCc3cc(OCc4cnco4)ccc3C2)n1` [Compound 289], the IC50 was in the range of 50 to 500 nM at PRMT5 [1] (PRMT5, MTA as cofactor); 1000 to 10000 nM in the assay with HAP1 MTAP-deleted (Homo sapiens, HAP1 MTAP-deleted cell line); 50 to 500 nM at PRMT5 [2]; 1000 to 10000 nM with HAP1 MTAP-intact; 500 to 5000 nM on PRMT5 [3]. In addition, the “SAM/MTA Ratio” value on PRMT5 [1] (ratio between Ki in the presence of SAM and Ki in the presence of MTA) was “A (a Ki ratio greater than or equal to 10 fold between the Ki in the presence of SAM and the Ki in the presence of MTA)”. The “MTAP Intact/Deleted Ratio” value in the assay with HAP1 MTAP-deleted (IC50 ratio HAP1 MTAP-intact / HAP1 MTAP-deleted) is “B* (an IC50 ratio greater than or equal to 3 fold but lower than 10 fold between the IC50 in the HAP1 MTAP-intact cell line and the HAP1 MTAP-deleted cell line)”.

The record behind these values is patent US11986471B2, “Compounds and methods of use” (Tango Therapeutics, Inc., priority 2018, dated 2024).
